The record followed here is ChEMBL document CHEMBL1201862, “PubChem BioAssay data set” (2004).

The source made the active and inactive calls. Cut-off read from the data, not from the text of the source, for most assays here: actives have a measured IC50 and inactives only a lower limit.

Test [1] has as its target T1, Tyrosine-protein phosphatase non-receptor type 7 (Homo sapiens, UniProt P35236).
T1 sequence (P35236 whole entry): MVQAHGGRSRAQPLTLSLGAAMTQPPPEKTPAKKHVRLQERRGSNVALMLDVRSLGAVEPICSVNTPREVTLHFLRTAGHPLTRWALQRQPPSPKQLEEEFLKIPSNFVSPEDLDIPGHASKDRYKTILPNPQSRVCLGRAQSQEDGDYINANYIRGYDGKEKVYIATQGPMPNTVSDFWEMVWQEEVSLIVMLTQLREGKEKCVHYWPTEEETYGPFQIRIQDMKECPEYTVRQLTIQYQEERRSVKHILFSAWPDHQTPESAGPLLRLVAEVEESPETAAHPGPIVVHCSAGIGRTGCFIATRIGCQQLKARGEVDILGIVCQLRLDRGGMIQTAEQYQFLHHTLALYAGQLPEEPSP
It is filed as functional.

For test [2], the target named is T2, Corticotropin-releasing factor receptor 2/Corticotropin-releasing factor-binding protein (Homo sapiens, UniProt P24387+Q13324).
T2 sequence (Q13324 whole entry): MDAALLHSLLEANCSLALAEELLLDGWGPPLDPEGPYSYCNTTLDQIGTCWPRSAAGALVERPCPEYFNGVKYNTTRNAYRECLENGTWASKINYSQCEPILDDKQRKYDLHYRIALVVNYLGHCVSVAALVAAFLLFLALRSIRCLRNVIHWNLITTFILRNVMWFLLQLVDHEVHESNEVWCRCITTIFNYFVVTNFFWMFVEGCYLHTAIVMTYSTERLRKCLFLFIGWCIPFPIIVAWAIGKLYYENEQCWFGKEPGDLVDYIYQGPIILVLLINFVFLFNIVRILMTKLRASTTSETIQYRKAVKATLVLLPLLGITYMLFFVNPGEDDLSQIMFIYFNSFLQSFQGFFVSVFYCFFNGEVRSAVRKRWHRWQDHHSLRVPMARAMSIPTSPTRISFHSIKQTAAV
T2 sequence (P24387 whole entry): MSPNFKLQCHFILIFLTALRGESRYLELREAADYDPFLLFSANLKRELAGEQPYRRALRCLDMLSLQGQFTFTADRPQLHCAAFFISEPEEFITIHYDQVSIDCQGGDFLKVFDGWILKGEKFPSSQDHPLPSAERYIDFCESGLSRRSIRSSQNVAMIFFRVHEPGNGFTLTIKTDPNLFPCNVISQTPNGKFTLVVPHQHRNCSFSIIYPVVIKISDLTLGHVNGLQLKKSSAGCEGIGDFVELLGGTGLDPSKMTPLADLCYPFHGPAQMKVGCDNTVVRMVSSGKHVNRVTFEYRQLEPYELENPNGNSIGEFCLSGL
The test is described as follows: activators of CRF receptor 2 with binding protein – uHTS hits, confirmation (AID 602473). In kind it is functional. Particulars: read-out: EC50_Mean.

The target in test [3] is T2, Corticotropin-releasing factor receptor 2/Corticotropin-releasing factor-binding protein. Kind of test: Dose Response confirmation of uHTS hits for small molecule antagonists of the CRF-binding protein and CRF-R2 receptor complex. In kind it is functional. Particulars: read-out: IC50_Mean.
Test [4] has as its target T3, Tyrosine-protein phosphatase non-receptor type 22 (Homo sapiens, UniProt Q9Y2R2).
T3 sequence (Q9Y2R2 whole entry): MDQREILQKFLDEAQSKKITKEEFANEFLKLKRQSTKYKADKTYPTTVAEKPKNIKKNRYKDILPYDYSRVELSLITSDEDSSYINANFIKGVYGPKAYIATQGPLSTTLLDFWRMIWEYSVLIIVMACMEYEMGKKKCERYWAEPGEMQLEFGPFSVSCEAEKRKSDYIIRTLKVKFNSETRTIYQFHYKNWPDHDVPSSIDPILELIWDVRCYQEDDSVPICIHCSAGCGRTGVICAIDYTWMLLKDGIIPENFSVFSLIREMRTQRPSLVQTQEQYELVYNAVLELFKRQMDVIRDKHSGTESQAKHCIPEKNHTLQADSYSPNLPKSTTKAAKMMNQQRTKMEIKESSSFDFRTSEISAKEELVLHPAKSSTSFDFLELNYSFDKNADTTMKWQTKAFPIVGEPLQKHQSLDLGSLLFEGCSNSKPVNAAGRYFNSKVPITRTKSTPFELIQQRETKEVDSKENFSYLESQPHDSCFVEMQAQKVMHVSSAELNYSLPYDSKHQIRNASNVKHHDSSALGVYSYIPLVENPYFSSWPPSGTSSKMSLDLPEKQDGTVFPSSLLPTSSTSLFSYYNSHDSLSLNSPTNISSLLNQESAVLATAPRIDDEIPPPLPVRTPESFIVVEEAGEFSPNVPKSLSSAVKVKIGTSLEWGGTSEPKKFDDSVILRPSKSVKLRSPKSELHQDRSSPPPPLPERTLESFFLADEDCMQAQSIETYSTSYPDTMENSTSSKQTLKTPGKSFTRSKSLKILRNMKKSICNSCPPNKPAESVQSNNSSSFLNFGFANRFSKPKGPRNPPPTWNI
It is filed as functional.

Test [5] has as its target T3, Tyrosine-protein phosphatase non-receptor type 22. In kind it is functional. The source holds these as a separate data set.
Test [6] addresses T4, Ubiquitin-conjugating enzyme E2 N (Homo sapiens, UniProt P61088).
T4 sequence (P61088 whole entry): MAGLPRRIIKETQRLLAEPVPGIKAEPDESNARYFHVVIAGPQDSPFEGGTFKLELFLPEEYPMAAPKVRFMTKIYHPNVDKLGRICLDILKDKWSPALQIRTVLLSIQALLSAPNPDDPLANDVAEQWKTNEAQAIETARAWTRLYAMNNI
In kind it is functional.

The target in test [7] is T5, Heat shock factor protein 1 (Mus musculus, UniProt P38532).
T5 sequence (P38532 whole entry): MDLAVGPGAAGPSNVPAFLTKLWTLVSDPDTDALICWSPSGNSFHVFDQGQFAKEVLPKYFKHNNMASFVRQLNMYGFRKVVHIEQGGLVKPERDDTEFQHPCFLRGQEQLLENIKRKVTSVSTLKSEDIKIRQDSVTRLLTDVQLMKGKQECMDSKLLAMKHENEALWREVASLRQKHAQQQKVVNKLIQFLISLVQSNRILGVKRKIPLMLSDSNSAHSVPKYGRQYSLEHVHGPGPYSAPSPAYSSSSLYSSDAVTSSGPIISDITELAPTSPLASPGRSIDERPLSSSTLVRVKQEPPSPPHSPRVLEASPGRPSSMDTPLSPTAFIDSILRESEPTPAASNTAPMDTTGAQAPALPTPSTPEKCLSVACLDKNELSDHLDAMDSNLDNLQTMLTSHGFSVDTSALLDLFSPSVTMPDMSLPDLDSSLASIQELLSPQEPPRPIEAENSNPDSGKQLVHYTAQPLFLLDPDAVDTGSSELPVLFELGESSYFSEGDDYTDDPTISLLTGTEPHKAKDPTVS
The test is described as follows: HSF1 potentiators in luciferase reporter cells, confirmation, cell-based, NIH3T3, luminescence, dose retest (AID 435004).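 Note: stress induced by proteasome inhibitor MG132 added 30 min after compound; luciferase reporter driven by HSF1 response element in NIH3T3 cells; actives raise luminescence as potentiators of the MG132 stress response.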 It is filed as functional. (In general: In a reporter assay the amount or activity of a reporter protein is the signal.)

Test [8] can be described thus: THP-1 cell cytotoxicity, dose response, cytotoxicity control for non-replicating M. tuberculosis project (AID 489025). In kind it is functional.
A short description of test [9]: Vero E6 cell cytotoxicity, dose response, cytotoxicity control for non-replicating M. tuberculosis project, secondary assay (AID 492998). In kind it is functional, VeroE6. To be noted: Vero C1008.
A short description of test [10]: cells. It is filed as functional.
The target in test [11] is Intestinal-type alkaline phosphatase (Homo sapiens, UniProt P09923). The test is described as follows: inhibition of human intestinal alkaline phosphatase – biochemical, dose response (AID 488876). In kind it is functional.
Test [12] addresses Intestinal-type alkaline phosphatase (Mus musculus, UniProt P24822). The test is described as follows: PubChem AID 488785. It is filed as functional.
In test [13] the target is T6, Alkaline phosphatase, tissue-nonspecific isozyme (Homo sapiens, UniProt P05186).
T6 sequence (P05186 whole entry): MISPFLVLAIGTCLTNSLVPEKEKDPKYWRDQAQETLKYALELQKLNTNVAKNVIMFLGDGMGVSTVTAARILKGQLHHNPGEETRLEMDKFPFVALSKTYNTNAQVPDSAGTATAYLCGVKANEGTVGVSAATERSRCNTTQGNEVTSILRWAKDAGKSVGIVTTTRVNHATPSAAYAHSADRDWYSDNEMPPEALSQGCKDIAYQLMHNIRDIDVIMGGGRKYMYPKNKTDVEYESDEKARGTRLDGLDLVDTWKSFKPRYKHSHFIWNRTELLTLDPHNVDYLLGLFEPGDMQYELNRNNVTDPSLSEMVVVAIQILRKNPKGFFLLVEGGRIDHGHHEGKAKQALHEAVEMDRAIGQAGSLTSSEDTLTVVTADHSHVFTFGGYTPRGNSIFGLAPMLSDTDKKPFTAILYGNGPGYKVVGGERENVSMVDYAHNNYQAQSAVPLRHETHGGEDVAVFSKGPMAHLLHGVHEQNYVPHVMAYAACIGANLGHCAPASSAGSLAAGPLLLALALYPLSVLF
Kind of test: TNAP enzyme inhibition by screening hits, dose response, selectivity assay for mouse IAP inhibitor project, biochemical, human TNAP, uHTS hits (AID 488906). It is filed as functional.

Test [14] concerns the target T7, Bcl-2-related protein A1 (Mus musculus, UniProt Q07440).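 Note: confirmatory dose–response counterscreen on Bfl-1, used to check hits from a UBC13 polyubiquitin inhibitor campaign.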
T7 sequence (Q07440 whole entry): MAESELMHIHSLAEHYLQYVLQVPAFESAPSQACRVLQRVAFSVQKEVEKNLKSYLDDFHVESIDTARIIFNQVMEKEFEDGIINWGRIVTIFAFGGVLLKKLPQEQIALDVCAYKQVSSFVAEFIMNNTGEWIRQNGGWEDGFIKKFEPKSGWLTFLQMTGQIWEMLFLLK
In kind it is functional.

Test [15] has as its target T4, Ubiquitin-conjugating enzyme E2 N. In kind it is functional. The source holds these as a separate data set.
The target in test [16] is T8, Microphthalmia-associated transcription factor (Homo sapiens, UniProt O75030).
T8 sequence (O75030 whole entry): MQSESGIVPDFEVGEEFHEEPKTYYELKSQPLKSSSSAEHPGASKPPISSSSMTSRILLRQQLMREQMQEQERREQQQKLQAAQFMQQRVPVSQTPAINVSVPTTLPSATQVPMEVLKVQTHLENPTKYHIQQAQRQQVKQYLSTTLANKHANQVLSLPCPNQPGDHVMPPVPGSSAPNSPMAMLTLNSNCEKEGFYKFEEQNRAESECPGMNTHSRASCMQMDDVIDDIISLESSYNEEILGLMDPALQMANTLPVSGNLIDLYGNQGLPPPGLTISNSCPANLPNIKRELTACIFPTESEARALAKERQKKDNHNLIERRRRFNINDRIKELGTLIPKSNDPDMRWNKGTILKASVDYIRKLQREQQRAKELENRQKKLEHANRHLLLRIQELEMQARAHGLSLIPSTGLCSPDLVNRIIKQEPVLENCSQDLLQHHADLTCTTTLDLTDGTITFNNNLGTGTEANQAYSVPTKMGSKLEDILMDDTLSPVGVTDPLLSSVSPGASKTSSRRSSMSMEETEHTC
The test is described as follows: TRPM1 promoter luciferase signal decrease, dose response, MITF inhibitor project, cell-based, SK-MEL-5, cherry-picked, set 3 (AID 493073).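 Note: SK-MEL-5 melanoma cells with luciferase driven by the MITF target TRPM1 promoter.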 In kind it is functional.

Intestinal-type alkaline phosphatase (Mus musculus, UniProt P24822), sequence (P24822 whole entry): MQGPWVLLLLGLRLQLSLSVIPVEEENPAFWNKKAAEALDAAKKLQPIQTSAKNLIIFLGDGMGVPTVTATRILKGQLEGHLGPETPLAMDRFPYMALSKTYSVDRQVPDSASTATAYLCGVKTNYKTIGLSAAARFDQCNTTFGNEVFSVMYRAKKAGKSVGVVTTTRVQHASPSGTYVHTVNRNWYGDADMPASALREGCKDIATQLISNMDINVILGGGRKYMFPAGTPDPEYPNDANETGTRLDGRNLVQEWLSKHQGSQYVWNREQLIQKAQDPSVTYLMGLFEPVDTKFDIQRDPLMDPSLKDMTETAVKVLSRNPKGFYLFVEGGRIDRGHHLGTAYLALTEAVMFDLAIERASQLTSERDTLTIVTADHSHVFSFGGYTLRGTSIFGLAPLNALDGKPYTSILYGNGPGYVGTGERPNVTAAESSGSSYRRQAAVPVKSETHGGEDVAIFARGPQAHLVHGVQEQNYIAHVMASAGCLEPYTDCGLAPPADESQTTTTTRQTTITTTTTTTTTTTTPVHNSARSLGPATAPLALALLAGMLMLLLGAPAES
Intestinal-type alkaline phosphatase (Homo sapiens, UniProt P09923), sequence (P09923 whole entry): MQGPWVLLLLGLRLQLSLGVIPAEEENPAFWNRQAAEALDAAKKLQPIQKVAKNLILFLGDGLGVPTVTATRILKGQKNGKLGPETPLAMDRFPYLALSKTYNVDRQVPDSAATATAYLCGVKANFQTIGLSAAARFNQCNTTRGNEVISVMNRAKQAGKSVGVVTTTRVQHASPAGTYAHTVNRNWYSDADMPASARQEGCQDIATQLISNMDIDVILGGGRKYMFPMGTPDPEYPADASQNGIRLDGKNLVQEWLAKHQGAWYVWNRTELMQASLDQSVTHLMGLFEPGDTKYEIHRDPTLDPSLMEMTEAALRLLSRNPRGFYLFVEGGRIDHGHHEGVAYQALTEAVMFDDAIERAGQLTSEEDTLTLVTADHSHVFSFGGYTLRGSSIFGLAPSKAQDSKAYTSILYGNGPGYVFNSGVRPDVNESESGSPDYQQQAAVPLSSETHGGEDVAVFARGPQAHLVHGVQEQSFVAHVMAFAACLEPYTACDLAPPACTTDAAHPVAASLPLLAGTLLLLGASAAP

`CCOc1ccc(C(=O)Nc2ccc(Cl)cn2)cc1Cl`: the IC50 in [1] was > 79.4 µM (inactive); in [3] it was > 47.1 µM (inactive); in test [4], > 79.4 µM (inactive); in test [5] it was > 79.4 µM (inactive). Moreover, the EC50 in [2] was > 53 µM (inactive).

As for `Cc1cc(NC(=O)Cn2c(=O)n(CCCCC(=O)NC3CCN(Cc4ccccc4)CC3)c(=O)c3ccccc32)[nH]n1`, the IC50 in test [1] was > 79.4 µM (inactive); in test [6], > 20 µM (inactive); in test [4] it was > 79.4 µM (inactive); in test [5], > 79.4 µM (inactive).

Take `Cc1ccc(-c2cc(C(F)F)nc(S(C)(=O)=O)n2)cc1`: the EC50 in [7] was 13.1 µM (active). Further, the CC50 was 23.9 µM (active) in [8] and > 20 µM (active) in test [9]. In test [10], the IC50 was 7.88 µM (active).

For `Cc1cc(F)ccc1S(=O)(=O)Nc1ccc(O)c(Sc2nnc[nH]2)c1`, the IC50 was 2.12 µM (active) in [11], 2.3 µM (active) in test [12] and 5.44 µM (active) in test [13].

On to `CCOC(=O)NC(=O)C(=CNc1ccc(C)cc1)C(=O)NC(=O)OCC`, for which the IC50 in test [1], in test [4] and in test [5] was > 79.4 µM (inactive) in each case.

Consider `Cc1ccc(CN2CCC(CNC(=O)c3ccc(NC(=O)C4=CSCCO4)cc3)CC2)cc1`, for which the IC50 in test [6] was 19.4 µM (active); in [14], > 20 µM (inactive); in test [15], > 20 µM (inactive).

Regarding `O=C(CNC(=O)c1cccc(F)c1)N/N=C/c1ccc([N+](=O)[O-])s1`, the CC50 is 28 µM (active) in [8] and > 20 µM (active) in test [9]. Moreover, the IC50 in test [10] is 30.7 µM (active). Moreover, in test [16], the AC50 was 7.45 µM (active).

As for `O=[N+]([O-])c1cc(Br)cc(/C=N/n2cnnc2)c1O`, the IC50 in test [1], in [4] and in [5] was > 79.4 µM (inactive) throughout.

Broadly, the CC50 is the concentration at which the toxic effect on the cells reaches its halfway point. As usually defined, the AC50 is the midpoint of the concentration-response curve, whichever way the signal moves.
